Source: US12454509B2, “Local anesthetics with selective-sensory nerve blockade” (Children's Medical Center Corporation, priority 2019, dated 2025)
Values joined by “and” are separate entries in the source; they are usually repeats but may differ in a detail not shown here. Identical values can stand only once.

Experiments:
[1] = test system: PC12 cells; experiment: Cytotoxicity in PC12 cells; assay type: cell-based, rat; settings: for cytotoxicity compared with ropivacaine and bupivacaine (in words): FIG. 1 / Table 2; for IC50: Rattus norvegicus, PC-12, cytotoxicity, exposure up to 24 h
Procedure: (§1) C2C12 Mouse myoblasts [American Type Culture Collection (ATCC) CRL-1772] were cultured to proliferate in DMEM supplemented with 20% FBS and 100 Penicillin Streptomycin. Cell culture supplies were obtained from Invitrogen, unless otherwise noted. Cells were plated at 50,000 cells per mL in DMEM with 2% horse serum and 1% Penn Strep, and left to differentiate into myotubules for 10-14 days. During differentiation, media were exchanged every 2 to 3 days. Cell viability and proliferation were studied after exposures to drugs for up to 24 h. PC12 cells (ATCC, CRL-1721) originating from rat adrenal gland pheochromocytoma were grown in 24-well tissue culture dishes (CellBind; Corning) with F-12K (ATCC) supplemented with 12.5% horse serum (Gibco), 2.5% FBS (Gibco), and 1% Penn Strep (Sigma). For neuronal induction (PC12), cells were seeded at a relative low density of 5×10^4 cells/cm2 and 50 ng/mL NGF was added 24 h after seeding. Cell viability and proliferation were evaluated as for C2C12 cells. Experiments with PC12 cells were conducted for up to 24 hours.

[2] = test system: sciatic nerve; experiment: Sciatic nerve block in rats: duration of thermal nociceptive (sensory) block, modified hotplate test; assay type: in vivo, rat; settings: for Block Duration (min) Sensory: rat sciatic nerve injection 0.3 mL; for Sensory:Motor Block Ratio: rat sciatic nerve block
Source text: (§2) Sciatic Nerve Block and Neurobehavioral Testing. Animals were cared for in compliance with protocols approved by the Children's Hospital Animal Care and Use Committee, and the Massachusetts Institute of Technology Committee on Animal Care, which conformed to guidelines of the International Association for the Study of Pain. Adult male Sprague-Dawley rats (Charles River Laboratories) weighing 320-450 g were housed in groups, in a 6 AM to 6 PM light-dark cycle. Under brief isoflurane-oxygen anesthesia, a 23G needle was introduced postero-medial to the greater trochanter, until bone was contacted, and 0.3 mL of test solution was injected over the sciatic nerve. Thermal nociception was assessed by a modified hotplate test, and motor function via a weight-bearing test. […] Motor strength was assessed with a weight-bearing test. In brief, the animal was held over a digital balance such that it could bear weight with 1 hind paw at a time. The maximum weight that it could bear was recorded. The duration of motor blockade was defined as the time for weight bearing to return halfway to normal from maximal block. The halfway point for each rat was defined as […].

[3] = test system: C2C12 Mouse myoblasts; experiment: Cytotoxicity in C2C12 myotubules; assay type: cell-based; settings: C2C12 cells; for cytotoxicity compared with ropivacaine and bupivacaine (in words): FIG. 2 / Table 2; for IC50: Mus musculus, cytotoxicity, exposure up to 24 h
Procedure: as §1

[4] = test system: sciatic nerve; experiment: Sciatic nerve block in rats: duration of motor block, weight-bearing test; assay type: in vivo; settings: rat sciatic nerve injection 0.3 mL
Source text: as §2

[5] = target: hERG (Homo sapiens, UniProt Q12809); experiment: Whole-cell patch clamp, hERG current in stably transfected HEK cells; settings: for hERG current amplitude, percent reduction: individual cell (raw data)
Chain of hERG (Q12809 whole entry): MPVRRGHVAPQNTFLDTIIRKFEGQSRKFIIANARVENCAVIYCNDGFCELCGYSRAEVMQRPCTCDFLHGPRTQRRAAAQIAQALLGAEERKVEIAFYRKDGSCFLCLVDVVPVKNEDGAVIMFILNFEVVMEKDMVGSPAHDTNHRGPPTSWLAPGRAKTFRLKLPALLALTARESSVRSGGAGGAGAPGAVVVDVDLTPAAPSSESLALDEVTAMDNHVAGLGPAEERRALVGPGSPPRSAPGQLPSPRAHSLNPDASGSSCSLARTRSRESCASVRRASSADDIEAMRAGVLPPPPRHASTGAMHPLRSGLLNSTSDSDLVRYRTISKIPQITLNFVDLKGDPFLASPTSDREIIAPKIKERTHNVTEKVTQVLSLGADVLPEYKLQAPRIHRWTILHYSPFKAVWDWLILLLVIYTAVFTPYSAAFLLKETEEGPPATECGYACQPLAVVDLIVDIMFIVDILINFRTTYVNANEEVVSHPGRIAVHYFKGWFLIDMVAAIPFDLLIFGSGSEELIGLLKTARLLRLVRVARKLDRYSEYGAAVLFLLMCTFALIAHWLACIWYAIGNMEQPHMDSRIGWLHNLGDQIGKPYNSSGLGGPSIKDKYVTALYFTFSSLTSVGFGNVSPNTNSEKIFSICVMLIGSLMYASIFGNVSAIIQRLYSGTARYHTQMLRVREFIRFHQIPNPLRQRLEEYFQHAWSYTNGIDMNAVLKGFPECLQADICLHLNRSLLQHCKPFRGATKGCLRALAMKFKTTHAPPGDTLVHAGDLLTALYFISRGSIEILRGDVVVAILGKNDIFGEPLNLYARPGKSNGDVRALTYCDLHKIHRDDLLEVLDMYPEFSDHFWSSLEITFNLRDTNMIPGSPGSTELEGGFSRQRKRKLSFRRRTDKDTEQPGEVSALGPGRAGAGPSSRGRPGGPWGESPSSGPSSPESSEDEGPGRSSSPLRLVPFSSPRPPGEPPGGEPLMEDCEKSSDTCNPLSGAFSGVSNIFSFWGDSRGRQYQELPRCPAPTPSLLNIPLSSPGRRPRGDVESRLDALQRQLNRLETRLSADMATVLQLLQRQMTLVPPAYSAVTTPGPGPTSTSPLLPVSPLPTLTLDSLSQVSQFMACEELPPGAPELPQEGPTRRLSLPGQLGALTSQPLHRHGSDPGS
Procedure: (§3) These experiments were designed to examine the acute effects of 4Sa (ZYK2312-1), 4Sb (ZYK2312-2), and bupivacaine on hERG and peak Nav1.5 currents recorded from stably transfected HEK cells.
(§4) Experimental Methods: Currents were measured using the whole-cell variant of the patch clamp method. Glass pipettes were pulled from borosilicate glass by a horizontal puller (Sutter Instruments, USA). Pipette tip resistance was approximately 1 to 2 MΩ when filled with internal solutions. Series resistance was compensated electronically by approximately 60-80%. Bath temperature was measured by a thermistor placed near the cell under study. An Axopatch 1-B amplifier (Axon Instruments, Foster City, CA) was used for whole-cell voltage clamping. Creation of voltage clamp pulses and data acquisition was controlled by a computer running pClamp software (ver 9.2 Axon Instruments). After rupture of the cell membrane (entering whole-cell mode), current kinetics and amplitudes were allowed to stabilize as the cell was dialyzed with internal solution and paced every 5 seconds (typically 2 to 3 minutes). Peak INa was elicited using a pulse pattern with fixed amplitudes (conditioning prepulse: −120 mV for 50 ms; depolarizing test step to −30 mV for 20 ms). hERG current was elicited with a 500 ms pulse to +10 mV followed by a 500 ms pulse to −40 mV (holding potential=[…]). Cells were perfused at each testing concentration until a steady-state was reached.
(§5) Raw data and mean±SEM are given. Data are presented as percent reduction of current amplitude. […] Each cell served as its own control. A nonlinear curve-fitting routine was utilized to fit a three-parameter Hill equation to the results using MicroCal Origin, version 6.0 software. The equation is:
(§6) [formula] where Vmax=100 and k and n are unconstrained variables.

[6] = target: peak Nav1.5 (Homo sapiens, UniProt Q14524); experiment: Whole-cell patch clamp, peak Nav1.5 current in stably transfected HEK cells
Chain of peak Nav1.5 (Q14524 whole entry): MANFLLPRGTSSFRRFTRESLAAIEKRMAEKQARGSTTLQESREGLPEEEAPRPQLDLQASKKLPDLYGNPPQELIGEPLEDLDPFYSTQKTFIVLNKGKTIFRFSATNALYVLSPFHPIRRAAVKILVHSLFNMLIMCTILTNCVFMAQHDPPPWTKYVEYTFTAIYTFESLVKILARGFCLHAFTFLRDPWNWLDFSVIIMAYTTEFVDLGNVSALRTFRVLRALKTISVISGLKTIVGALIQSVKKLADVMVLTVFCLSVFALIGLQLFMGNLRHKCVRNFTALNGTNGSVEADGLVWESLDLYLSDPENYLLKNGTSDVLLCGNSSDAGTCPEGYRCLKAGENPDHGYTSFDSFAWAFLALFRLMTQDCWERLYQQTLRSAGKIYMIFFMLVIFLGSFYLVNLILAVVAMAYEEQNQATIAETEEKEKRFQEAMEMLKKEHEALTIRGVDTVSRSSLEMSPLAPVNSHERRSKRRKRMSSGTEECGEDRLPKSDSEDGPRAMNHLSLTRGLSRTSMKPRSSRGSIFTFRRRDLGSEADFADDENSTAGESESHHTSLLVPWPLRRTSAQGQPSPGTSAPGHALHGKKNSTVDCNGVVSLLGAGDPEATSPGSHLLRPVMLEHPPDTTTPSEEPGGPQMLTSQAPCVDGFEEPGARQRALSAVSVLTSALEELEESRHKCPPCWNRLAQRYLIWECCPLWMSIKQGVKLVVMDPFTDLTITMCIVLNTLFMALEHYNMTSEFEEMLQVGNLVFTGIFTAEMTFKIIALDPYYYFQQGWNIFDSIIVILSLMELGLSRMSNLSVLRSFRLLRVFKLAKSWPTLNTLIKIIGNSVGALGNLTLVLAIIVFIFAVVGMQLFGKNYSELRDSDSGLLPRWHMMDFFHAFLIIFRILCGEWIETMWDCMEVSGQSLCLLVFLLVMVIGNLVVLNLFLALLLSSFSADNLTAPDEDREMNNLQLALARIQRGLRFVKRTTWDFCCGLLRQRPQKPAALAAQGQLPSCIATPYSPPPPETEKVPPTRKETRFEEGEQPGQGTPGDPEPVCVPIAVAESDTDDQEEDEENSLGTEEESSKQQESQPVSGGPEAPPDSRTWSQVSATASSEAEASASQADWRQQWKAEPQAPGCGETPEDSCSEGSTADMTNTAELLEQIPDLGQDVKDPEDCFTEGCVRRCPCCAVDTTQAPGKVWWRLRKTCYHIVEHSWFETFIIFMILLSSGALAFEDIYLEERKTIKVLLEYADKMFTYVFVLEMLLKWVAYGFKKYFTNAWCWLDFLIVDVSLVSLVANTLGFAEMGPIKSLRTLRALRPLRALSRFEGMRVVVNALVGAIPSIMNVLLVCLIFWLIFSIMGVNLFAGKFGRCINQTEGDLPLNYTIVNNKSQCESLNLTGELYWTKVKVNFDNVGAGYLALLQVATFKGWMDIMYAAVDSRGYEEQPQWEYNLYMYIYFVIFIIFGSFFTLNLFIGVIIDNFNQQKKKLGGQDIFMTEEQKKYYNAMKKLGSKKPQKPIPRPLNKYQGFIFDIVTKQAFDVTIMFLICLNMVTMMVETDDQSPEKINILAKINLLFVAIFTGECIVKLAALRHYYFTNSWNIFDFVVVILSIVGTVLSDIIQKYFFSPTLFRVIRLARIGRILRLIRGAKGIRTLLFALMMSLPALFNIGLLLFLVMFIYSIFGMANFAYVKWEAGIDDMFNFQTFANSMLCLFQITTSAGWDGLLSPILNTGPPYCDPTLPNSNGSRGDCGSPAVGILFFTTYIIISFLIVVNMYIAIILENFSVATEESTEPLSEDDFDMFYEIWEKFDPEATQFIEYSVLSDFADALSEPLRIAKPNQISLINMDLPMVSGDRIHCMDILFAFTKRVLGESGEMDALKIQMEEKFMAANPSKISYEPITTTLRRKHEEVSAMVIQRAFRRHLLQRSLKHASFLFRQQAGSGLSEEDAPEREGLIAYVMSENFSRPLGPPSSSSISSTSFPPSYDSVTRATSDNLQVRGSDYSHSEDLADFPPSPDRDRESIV
Procedure: as §3, §4, §5, §6

SMILES	cytotoxicity compared with ropivacaine and bupivacaine (in words) [1]	Block Duration (min) Sensory ([2]; dose conc 10 mM) [min]	cytotoxicity compared with ropivacaine and bupivacaine (in words) [3]	Block Duration (min) Motor ([4]; dose conc 10 mM) [min]	Block Duration (min) Sensory ([2]; dose conc 15 mM) [min]	Block Duration (min) Motor ([4]; dose conc 15 mM) [min]	Block Duration (min) Sensory ([2]; dose conc 5 mM) [min]	Block Duration (min) Motor ([4]; dose conc 5 mM) [min]	also measured
CCCC(=O)OC[N+]1(CCC)CCCC[C@H]1C(=O)Nc1c(C)cccc1C.[Cl-] (stereo in doubt) [Compound 11S, 1-((Butyryloxy)methyl)-2-((2,6-dimethylphenyl)carbamoyl)-1-propylpiperidin-1-ium chloride]	significantly less cytotoxic than ropivacaine and bupivacaine	135 ± 56	significantly less cytotoxic than ropivacaine and bupivacaine	90 ± 44					
CCCCN1CCCCC1C(=O)Nc1c(C)cccc1C (centres unmarked) [Bupivacaine, bupivacaine, reference compound]		129 ± 21		140 ± 15	215 ± 31	222 ± 30			IC50 [1]: 870 µM; IC50 [5]: 16.4 µM; hERG current amplitude, percent reduction ([5]; 1 μM): 19.8% and 9.1% and 10.5%; hERG current amplitude, percent reduction, mean ± SE ([5]; 1 μM): 13.1 ± 3.4%; hERG current amplitude, percent reduction ([5]; 10 μM): 43.0% and 45.0% and 42.1%; hERG current amplitude, percent reduction, mean ± SE ([5]; 10 μM): 43.4 ± 0.9%; hERG current amplitude, percent reduction ([5]; 100 μM): 76.3% and 70.7% and 78.9%; hERG current amplitude, percent reduction, mean ± SE ([5]; 100 μM): 75.3 ± 2.4%; IC50 [6]: 9.8 µM; peak Nav1.5 current amplitude, percent reduction, mean ± SE ([6]; 1 μM): 13.5 ± 3.1%; peak Nav1.5 current amplitude, percent reduction, mean ± SE ([6]; 10 μM): 49.0 ± 1.0%; peak Nav1.5 current amplitude, percent reduction, mean ± SE ([6]; 100 μM): 90.7 ± 1.5%; inhibition at 10 µM ([6]; HEK293, read-out: peak Nav1.5 current amplitude, percent reduction, 10 μM, individual cell (raw data)): 50.8%; inhibition at 100 µM ([6]; HEK293, read-out: peak Nav1.5 current amplitude, percent reduction, 100 μM, individual cell (raw data)): 89.2%; IC50 [3]: 720 µM
CCC[N+]1(COC(C)=O)CCCC[C@H]1C(=O)Nc1c(C)cccc1C.[Br-] (some centres unmarked) [Compound 10S, 1-(Acetoxymethyl)-2-((2,6-dimethylphenyl)carbamoyl)-1-propylpiperidin-1-ium bromide]	significantly less cytotoxic than ropivacaine and bupivacaine	105 ± 53	significantly less cytotoxic than ropivacaine and bupivacaine	65 ± 34			55 ± 23	15 ± 15	
CCCC[N@+]1(CC(=O)OC)CCCC[C@H]1C(=O)Nc1c(C)cccc1C (racemic) [2a + 2b, 1-Butyl-2-((2,6-dimethylphenyl)carbamoyl)-1-(2-methoxy-2-oxoethyl)piperidin-1-ium bromide]	significantly less cytotoxic than ropivacaine and bupivacaine	150 ± 51	significantly less cytotoxic than ropivacaine and bupivacaine	50 ± 23			30 ± 12	0	Sensory:Motor Block Ratio ([2]; dose conc 5 mM): ∞; Block Duration (min) Sensory ([2]; dose conc 7.5 mM): 120 ± 34 min; Block Duration (min) Motor ([4]; dose conc 7.5 mM): 30 ± 15 min
COC(=O)C[N@@+]1(C)CCCC[C@H]1C(=O)Nc1c(C)cccc1C (racemic) [Compound 3a, 2-((2,6-Dimethylphenyl)carbamoyl)-1-(2-methoxy-2-oxoethyl)-1-methylpiperidin-1-ium bromide]		0		0					
CCCC[N+]1(COC(C)=O)CCCCC1C(=O)Nc1c(C)cccc1C.[Br-] (centres unmarked) [Compound 9, 1-(Acetoxymethyl)-1-butyl-2-((2,6-dimethylphenyl)carbamoyl)piperidin-1-ium bromide]		120 ± 53		75 ± 39	125 ± 51	85 ± 36	65 ± 23	25 ± 19	
COC(=O)C[N@@+]1(C)CCCC[C@@H]1C(=O)Nc1c(C)cccc1C (racemic) [Compound 3b, 2-((2,6-Dimethylphenyl)carbamoyl)-1-(2-methoxy-2-oxoethyl)-1-methylpiperidin-1-ium bromide]		450 ± 60		300 ± 60					
CCC[N@@+]1(CC(=O)NC)CCCC[C@H]1C(=O)Nc1c(C)cccc1C [Compound 26Sa, 2-((2,6-dimethylphenyl)carbamoyl)-1-(2-(methylamino)-2-oxoethyl)-1-propyl-1-piperidin-2-ylium bromide]	significantly less cytotoxic than ropivacaine and bupivacaine	180	significantly less cytotoxic than ropivacaine and bupivacaine	140					IC50 [1]: 1200 µM; IC50 [3]: 1000 µM
Br.CC[N+](CC)(CC(=O)Nc1c(C)cccc1C)CC(=O)OC [Compound 1, 2-((2,6-Dimethylphenyl)amino)-N,N-diethyl-N-(2-methoxy-2-oxoethyl)-2-oxoethan-1-aminium bromide]	significantly less cytotoxic than ropivacaine and bupivacaine		significantly less cytotoxic than ropivacaine and bupivacaine						
CCCN1CCCC[C@H]1C(=O)Nc1c(C)cccc1C (single isomer, unassigned) [(S)-Ropivacaine, reference compound]		150 ± 35		150 ± 38	215 ± 31	210 ± 28			
CCC[N@+]1(CC(=O)OC)CCCC[C@H]1C(=O)Nc1c(C)cccc1C.[Br-] (racemic) [4Sa + 4Sb, 2-((2,6-Dimethylphenyl)carbamoyl)-1-(2-methoxy-2-oxoethyl)-1-propylpiperidin-1-ium bromide]	significantly less cytotoxic than ropivacaine and bupivacaine	220 ± 40	significantly less cytotoxic than ropivacaine and bupivacaine	78 ± 24	254 ± 48	69 ± 20	34 ± 13	0	Sensory:Motor Block Ratio ([2]; dose conc 5 mM): ∞; Block Duration (min) Sensory ([2]; dose conc 7.5 mM): 108 ± 27 min; Block Duration (min) Motor ([4]; dose conc 7.5 mM): 10 ± 10 min
